Where two headings read alike, the source gives them in different places.
Columns and labels:
[1] = test system: re-uptake of ^3 H-dopamine; experiment: Re-uptake of 3H-dopamine in vitro (synaptosomes, P2 fraction of whole brain); type: biochemical, Std: Wistar strain male rat; details: Experiment I, rat brain synaptosomes, 37° C., 20 minutes
Procedure: Effect of the test samples on the re-uptake of ^3 H-dopamine in vitro
P2 fraction was prepared from the whole brain of Std: Wistar strain male rat. […] The obtained mixture was incubated at 37° C. for 20 minutes and then subjected to the suction filtration with Whatman GF/B filter paper.
The obtained filter paper was put in a vial containing 10 ml of toluene type scintillator and its radioactivity was measured by means of liquid scintillation counter. The amount of the specific re-uptake of ^3 H-dopamine was obtained by subtracting the amount of re-uptake at 0° C. as blank.

[2] = test system: memory defect artificially induced by electroconvulsive shock in mice; experiment: Memory defect artificially induced by electroconvulsive shock in mice (step-through test); type: in vivo, C 57 BL/6 male mice; details: ECS +; for Number of mice showing latency longer than 300 seconds: 1 hour before testing trial, 10 mice; for Amnestic syndrome rate: control ECS + 80, ECS - 40
Procedure: […]. The test was carried out by using a box divided into two rooms (light and dark). The dark room (23.5 cm in height, 12 cm in width and 24 cm in length) was surrounded by black inner walls and provided with a stainless steel bar on the floor to give the mouse an electric shock. The light room (triangular in shape with 15 cm in height, 13 cm in bottom side length and 12 cm in oblique-side length) was surrounded by transparent walls except for the partition wall, provided with a guillotine door (5 cm in height and 3 cm in width) at the center of the partition wall, and illuminated with a 100 Watt electric bulb at a position of 50 cm above the floor.
The test was carried out according to the procedures as follows:
After the mouse was put in the light room, the guillotine door was opened. When the limbs of the mouse entered into the dark room, the door was closed. After keeping the mouse for 10 seconds in the dark room, it was brought back to the home cage.
The mouse was put in the light room at the time of 30 minutes after the taming trial, and then the guillotine door was opened. When the limbs of the mouse entered into the dark room, the door was closed and 0.4 mA of electric shock was applied to the limbs of the mouse for 3 seconds. Then, the mouse was brought back to the home cage.
The mouse was put in the light room at the time of 24 hours after the acquisition trial, and then the guillotine door was opened.
Electroconvulsive shock (30 mA, 0.5 second) was applied to the mouse at its ears immediately after the acquisition trial, which caused tetany on the mouse. The mice, which survived after the righting reflex had disappeared,were subjected to the testing trial 24 hours later.
The test compound was dissolved in distilled water, and the solution was orally administered, in a dose shown in Table 1 to each group consisting of 10 heads at the time of one hour before the testing trial.
The testing trial (3) was conducted at one hour after the test compound administration, and the reaction latency was examined for each test mouse. The obtained results are shown in Table 1, and Amnestic syndrome rate (%) is expressed as follows: [formula]

[3] = Acute toxicity, oral, mice; parameters: species or system SlC:ddy male mice; details: mouse, in vivo, read-out: Number of dead mice per 10 mice
Procedure: SlC:ddy male mice (10 heads/group) were used.
After the oral administration of the test smaple, desipramine was used as the test drug, to the mice, the number of the dead mice was counted at 0.5, 1, 2, 4, 18 and 24 hours respectively after the oral administration.

[4] = test system: depletion of serotonin induced by p-chloroamphetamine; experiment: Depletion of serotonin (5-HT) induced by p-chloroamphetamine (whole brain); type: in vivo, SlC:ddy mice; details: p-chloroamphetamine 10 mg/kg i.p., control 48 ± 6, **p < 0.01
Procedure: Effect of the test samples on the depletion of serotonin (hereinafter referred to as "5-HT") induced by p-chloroamphetamine
The test sample was administered orally to SlC:ddy made mice and after 60 minutes, p-chloroamphetamine (10 mg/kg) was injected intraperitoneally.
At 6 hours later, the mice were decapitated. The whole brain was rapidly removed and homogenized in 0.06M perchloric acid with N-methylserotonin (10 μg/ml) as an internal standard. The homogenate was centrifuged and then the amount of 5-HT in the supernatant was determined by high performance liquid chromatography with electrochemical detection.
Amitriptyline was used as the reference drug and distilled water was used as control sample.

[5] = test system: depletion of dopamine induced by MPTP in mice whole brain; experiment: animal or person; type: in vivo, SlC: ddy strain male mice; details: Mus musculus, po, 168 h, MPTP 50 mg/kg s.c., read-out: Percentage of the amount of dopamine in the treated group against the amount of dopamine in the non-treated group; for response vs control in vivo at 10 mg/kg: 10 mg/kg oral
[6] = test system: sleeping time induced by thiopental; experiment: Sleeping time induced by thiopental; type: in vivo, Std: Wistar male rats; details: thiopental 40 mg/kg i.v., control 500.8 ± 12.0, **p < 0.01
Procedure: Effect of the test samples on the sleeping time induced by thiopental
The test sample was administered orally to Std: Wistar male rats, and at 60 minutes later, sodium thiopental (40 mg/kg) was injected intravenously.
The duration of sleeping time was determined as the time period between the injection of thiopental and return of the righting reflex.
Distilled water was used as control sample.

Which results are given for `CC(C)CC(N(C)C)C1(c2ccc(Cl)cc2)CCC1.Cl` (stereo not shown) [Test compound, N,N-dimethyl-1-[1-(4-chlorophenyl)cyclobutyl]3-methylbutylamine hydrochloride]?
IC50 [1]: 2 µM; Number of mice showing latency longer than 300 seconds ([2]; 0.3 mg/kg oral): 4; Amnestic syndrome rate ([2]; 0.3 mg/kg oral): 60%; Number of mice showing latency longer than 300 seconds ([2]; 1.0 mg/kg oral): 3; Amnestic syndrome rate ([2]; 1.0 mg/kg oral): 70%; Number of mice showing latency longer than 300 seconds ([2]; 3.0 mg/kg oral): 7; Amnestic syndrome rate ([2]; 3.0 mg/kg oral): 30%; Number of mice showing latency longer than 300 seconds ([2]; 10.0 mg/kg oral): 9; Amnestic syndrome rate ([2]; 10.0 mg/kg oral): 10%; mortality at 0.5 h ([3]; 200 mg/kg oral): 0%; mortality at 1 h ([3]; 200 mg/kg oral): 10%; mortality at 2 h ([3]; 200 mg/kg oral): 10%; mortality at 4 h ([3]; 200 mg/kg oral): 10%; mortality at 18 h ([3]; 200 mg/kg oral): 20%; mortality at 24 h ([3]; 200 mg/kg oral): 20%; mortality at 0.5 h ([3]; 800 mg/kg oral): 40%; mortality at 1 h ([3]; 800 mg/kg oral): 50%; mortality at 2 h ([3]; 800 mg/kg oral): 50%; mortality at 4 h ([3]; 800 mg/kg oral): 60%; mortality at 18 h ([3]; 800 mg/kg oral): 90%; mortality at 24 h ([3]; 800 mg/kg oral): 90%; Percentages of the amount of 5-HT in the treated group against the amount of 5-HT in the non-treated group ([4]; 3 mg/kg oral): 64 ± 8%; Percentages of the amount of 5-HT in the treated group against the amount of 5-HT in the non-treated group ([4]; 10 mg/kg oral): 103 ± 10%; response vs control in vivo at 10 mg/kg ([5]; Experiment I, control 71 ± 11, *P < 0.05, **P < 0.01): 83 ± 12%; response vs control in vivo at 30 mg/kg ([5]; Experiment I, 30 mg/kg oral, control 71 ± 11, *P < 0.05, **P < 0.01): 85 ± 6%; response vs control in vivo at 10 mg/kg ([5]; Experiment II, control 88 ± 20, *P < 0.05): 111 ± 8%; Sleeping time ([6]; 10 mg/kg oral): 345.6 ± 82.2 s; Sleeping time ([6]; 30 mg/kg oral): 338.5 ± 43.7 s
